# Earlier results as cited in PMC12308805, “Ultrahigh-Throughput Virtual Screening Strategies against PPI Targets: A Case Study of STAT Inhibitors” (Journal of Chemical Information and Modeling, 2025).
# Square brackets hold non-standard residues; d marks the D form. Peptide text beside a SMILES is read from it. pY = N[C@@H](Cc1ccc(OP(=O)(O)O)cc1)C(=O)O; Hyp = O=C(O)[C@@H]1C[C@@H](O)CN1
# Tested on: STAT3
# Settings: cited from earlier work
row,SMILES,Type (known STAT3 active)
1,CC(C)C[C@H](NC(=O)/C=C/c1ccc(OP(=O)(O)O)cc1)C(=O)N1CCC[C@H]1C(=O)N[C@H](C)CCC(N)=O [CHEMBL578635],Active
2,CC(=O)N[C@@H](Cc1ccc(OP(=O)(O)O)cc1)C(=O)N[C@@H](CC(C)C)C(=O)N1CCC[C@H]1C(=O)N[C@@H](CCC(N)=O)C(=O)N[C@H](C(=O)N[C@H](C(N)=O)C(C)C)[C@H](C)O [CHEMBL502473],Active

# Same assay, conditions: sheet 6QHD_actives_decoys, retrospective screening set for STAT3 SH2 domain (PDB 6QHD); decoys are presumed inactives, not tested; ref DUD-E; cited from earlier work
row,SMILES,Type
1,COc1cc(NC(=S)Nc2ccc(S(=O)(=O)/N=c3/cc(OC)nc(OC)[nH]3)cc2)cc(OC)c1 [Decoy884],Inactive (Decoy)
2,CC(O)(O)C(=O)OCC(C)(COC(=O)C(C)(O)O)C(=O)OCC(C)(COC(=O)C(C)(COC(=O)C(C)(O)O)COC(=O)C(C)(O)O)C(=O)OCCS [Decoy812],Inactive (Decoy)
3,CC[C@H](C)[C@H](OC(=O)[C@@H](OC(=O)[C@H](O)[C@@H](C)CC)[C@@H](C)CC)C(=O)OC[C@H](O)[C@H](O)[C@H](O)[C@H](O)CO [Decoy863],Inactive (Decoy)
4,COc1cc(-c2ccc(/N=N/c3cc(S(=O)(=O)O)c4ccccc4c3O)c(OC)c2)ccc1/N=N\c1c(S(=O)(=O)O)cc2cc(C(=O)O)c(O)cc2c1O [Decoy859],Inactive (Decoy)
5,CCCOc1ccc([C@@H]2c3c(n[nH]c3-c3cc(C)cc(C)c3O)C(=O)N2CCCOC(C)C)cc1OCC [Decoy897],Inactive (Decoy)
6,CN(CCO)c1ccc(/C=N\Nc2ccc(S(=O)(=O)Nc3ccccc3C(=O)O)cc2[N+](=O)[O-])cc1 [Decoy894],Inactive (Decoy)
7,COC(=O)c1[nH]c(C)c(C(=O)C2=C(O)C(=O)N(CCN3CCOCC3)[C@H]2c2cc(OC)c(OC)c(OC)c2)c1C [Decoy873],Inactive (Decoy)
8,COc1ccccc1OCCNC[C@@H](O)Cn1c2ccccc2c2c(OC[C@@H](O)CNCCOc3ccccc3OC)cccc21 [Decoy936],Inactive (Decoy)
9,CCN(CC)c1ccc(NC(=O)CSc2n[nH]c(N/N=C/c3cc(OC)c(O)cc3[N+](=O)[O-])n2)cc1 [Decoy906],Inactive (Decoy)
10,COC(=O)Cc1c(C(=O)OC)sc(NC(=O)CSc2nc(C(C)(C)C)n[nH]2)c1C(=O)OC [Decoy810],Inactive (Decoy)
11,O=C(O)c1ccccc1Nc1ccc(C(F)(F)F)cc1Nc1ccc(CNCc2c[nH]c(=O)[nH]c2=O)cc1C(=O)O [Decoy840],Inactive (Decoy)
12,CCCCCCCCO[C@@H]1[C@@H](O)[C@@H](O)O[C@H](Cn2c(=O)n(C[C@H]3O[C@H](O)[C@H](O)[C@@H](OCCCCCCCC)[C@@H]3O)c3cc(Cl)ccc32)[C@H]1O [Decoy956],Inactive (Decoy)
13,CCN(CC)Cc1c(C(=O)N/N=C/c2cc(Cl)ccc2OCc2c(F)cccc2Cl)nnn1-c1nonc1N [Decoy844],Inactive (Decoy)

# Same assay, conditions: sheet 6QHD_actives_decoys; known STAT3 actives of the retrospective screening set; ref ChEMBL / literature; cited from earlier work
row,SMILES,Type (known STAT3 active)
1,CNC(=O)[C@H](CCC(N)=O)NC(=O)[C@@H]1CCCN1C(=O)[C@H](CC(C)C)NC(=O)[C@H](Cc1ccc(OP(=O)(O)O)cc1)NC(C)=O [CHEMBL370095] (Ac-[pY]LPQ-NHMe),Active
2,CC(=O)N[C@@H](Cc1ccc(OP(=O)(O)O)cc1)C(=O)N[C@@H](CC(C)C)C(=O)N1C[C@H](O)C[C@H]1C(=O)N[C@@H](CCC(N)=O)C(=O)N[C@H](C(N)=O)[C@@H](C)O [CHEMBL372429] (Ac-[pY]L[Hyp]QT-NH2),Active
3,C1=Cc2nc1cc1ccc([nH]1)c(-c1ccccc1)c1nc(cc3ccc([nH]3)c2-c2ccccc2)C=C1 [CHEMBL207155],Active

# Same assay, conditions: sheet 6QHD_actives_decoys; retrospective screening set for STAT3 SH2 domain (PDB 6QHD); […]; ref DUD-E; cited from earlier work
row,SMILES,Type
1,Nc1n(-c2ccccc2)c(=O)c(C(c2ccc([N+](=O)[O-])cc2)c2c([O-])[n+](-c3ccccc3)c(N)n(-c3ccccc3)c2=O)c([O-])[n+]1-c1ccccc1 [Decoy514],Inactive (Decoy)
2,Cc1ccc(S(=O)(=O)N[C@]2(C(F)(F)F)C(=O)Nc3c2c(=O)nc(O)n3-c2ccccc2)cc1 [Decoy629],Inactive (Decoy)
3,O=[N+]([O-])c1ccc(S(=O)(=O)Nc2cccc(NS(=O)(=O)c3ccc([N+](=O)[O-])cc3)c2)cc1 [Decoy459],Inactive (Decoy)

# Same assay, conditions: sheet 6QHD_actives_decoys; retrospective screening set for STAT3 SH2 domain (PDB 6QHD); decoys generated with DUD-E and presumed inactive, not tested; ref DUD-E; cited from earlier work
row,SMILES,Type
1,CC(=O)N[C@@H]1[C@@H](O)[C@H](O[C@@H]2O[C@H](CO)[C@H](O)[C@H](O[C@]3(C(=O)O)C[C@H](O)[C@@H](NC(C)=O)[C@H]([C@H](O)[C@H](O)CO)O3)[C@H]2O)[C@@H](CO)O[C@@H]1O [Decoy638],Inactive (Decoy)
2,C=C[C@H]1[C@H](O[C@H]2O[C@@H](CO)[C@@H](O)[C@@H](O)[C@@H]2O)OC=C(C(=O)OC)[C@H]1CCOC(=O)c1cc(O)c(O)c(O)c1 [Decoy699],Inactive (Decoy)
3,CCOCCOc1ccccc1C(=O)N/C(S)=N\NC(=O)COc1ccc([N+](=O)[O-])cc1 [Decoy631],Inactive (Decoy)
4,COc1cc(/C=N/Nc2nc(SCC(=O)Nc3cc(F)ccc3C)n[nH]2)cc(OC)c1OC [Decoy676],Inactive (Decoy)
5,Cc1ccc(S(=O)(=O)NCCN(CCN(CCNS(=O)(=O)c2ccc(C)cc2)S(=O)(=O)c2ccc(C)cc2)S(=O)(=O)c2ccc(C)cc2)cc1 [Decoy653],Inactive (Decoy)
6,COc1ccc(C(=O)O[C@H]2[C@@H]3C=CO[C@@H](O[C@@H]4O[C@H](COC(C)=O)[C@@H](OC(C)=O)[C@H](OC(C)=O)[C@H]4OC(C)=O)[C@@H]3[C@](O)(COC(C)=O)[C@@H]2O)cc1 [Decoy372],Inactive (Decoy)
7,C=CCn1c(CCCN2C(=O)c3cccc4cccc(c34)C2=O)nnc1SCC(=O)Nc1ccc(S(N)(=O)=O)cc1 [Decoy601],Inactive (Decoy)
8,COc1ccc(C(=O)O[C@H]2[C@@H]3C=CO[C@H](O[C@@H]4O[C@H](COC(C)=O)[C@@H](OC(C)=O)[C@H](OC(C)=O)[C@H]4OC(C)=O)[C@@H]3[C@](O)(COC(C)=O)[C@@H]2O)cc1 [Decoy373],Inactive (Decoy)
9,CC[C@@H](c1nnnn1C(C)(C)CC)N(Cc1ccc(OC)cc1)Cc1cc2c(C)ccc(C)c2[nH]c1=O [Decoy452],Inactive (Decoy)
10,CCNS(=O)(=O)c1ccc(C)c(C(=O)OCC(=O)NNC(=O)c2ccccc2Cl)c1 [Decoy518],Inactive (Decoy)
11,CC1(C)CC[C@]2(C(=O)O[C@@H]3O[C@H](CO)[C@@H](O)[C@H](O)[C@H]3O)[C@H](O)C[C@]3(C)C(=CC[C@@H]4[C@@]5(C)CC[C@H](O[C@@H]6OC[C@H](O)[C@H](O)[C@H]6O)[C@@](C)(CO)[C@@H]5CC[C@]43C)[C@@H]2C1 [Decoy535],Inactive (Decoy)
12,CC(=O)OC[C@@H](OC(C)=O)[C@H](OC(C)=O)[C@H](OC(C)=O)[C@H](OC(C)=O)[C@@H]1N[C@H](C(=O)O)C(C)(C)S1 [Decoy590],Inactive (Decoy)
13,CCOC(=O)c1c(C)oc(NC(=O)[C@@H](CC)n2c(N)nnc2SCC(=O)OC)c1C(=O)OCC [Decoy617],Inactive (Decoy)
14,COc1ccc(/C=C(\C#N)C(=O)Nc2ccc(S(=O)(=O)Nc3ccc(C)cc3)cc2)cc1OS(=O)(=O)c1ccc(NC(C)=O)cc1 [Decoy355],Inactive (Decoy)
15,CCCCCCCCCC(=O)O[C@H]1[C@@H](O[C@@]2(CO)O[C@@H](CO)[C@@H](O)[C@H]2O)O[C@@H](CO)[C@@H](OC(=O)C(C)C)[C@@H]1OC(=O)C(C)C [Decoy419],Inactive (Decoy)
16,Nc1ccc2cc(S(=O)(=O)O)cc(O)c2c1/N=N/c1ccccc1S(=O)(=O)NCC1CCCCC1 [Decoy501],Inactive (Decoy)
17,CCCCC(=O)Nc1ccc(NC(=S)NC(=O)c2ccc(OCC)c([N+](=O)[O-])c2)cc1OC [Decoy467],Inactive (Decoy)
18,CCOc1ccc([C@@H]2C(C(=O)c3ccc(Cl)cc3)=C(O)C(=O)N2CCCn2ccnc2)cc1OCC [Decoy645],Inactive (Decoy)
19,CC(C)(C)OC(=O)N[C@H](CSSC[C@@H](NC(=O)OC(C)(C)C)C(=O)OC[C@H]1O[C@H](O)[C@@H](O)[C@@H](O)[C@H]1O)C(=O)OC[C@H]1O[C@H](O)[C@@H](O)[C@@H](O)[C@H]1O [Decoy536],Inactive (Decoy)
20,C=CCOC(=O)[C@H]1O[C@@H](OC(=O)c2cc(S(N)(=O)=O)c(Cl)cc2NCc2ccco2)[C@H](O)[C@@H](O)[C@@H]1O [Decoy370],Inactive (Decoy)
21,CCN(CC)S(=O)(=O)c1cccc(-c2nnc(SCC(=O)Nc3cc(C)cc(C)c3)n2N)c1 [Decoy726],Inactive (Decoy)
22,Nc1ncnc2c1ncn2[C@H]1O[C@@H](CO[P@@](=O)(O)O[P@@](=O)(O)OC[C@H](O)[C@H](O)[C@H](O)C=O)[C@@H](O)[C@@H]1O [Decoy403],Inactive (Decoy)
23,CC(=O)N[C@@H]1[C@H]([C@H](O)[C@H](O)CO)O[C@@](O[C@H]2[C@@H](O)[C@@H](O[C@@H]([C@@H](O[C@@H]3O[C@@H](C)[C@@H](O)[C@H](O)[C@@H]3O)[C@H](O)C=O)[C@H](O)CO)O[C@@H](CO)[C@H]2O)(C(=O)O)C[C@@H]1O [Decoy381],Inactive (Decoy)
24,CC(=O)O[C@H]1[C@H](O)[C@H]([C@@](C)(O)CC[C@@H](O)C(C)(C)O)[C@@]2(C)CC[C@@]34C[C@@]35CC[C@H](O[C@@H]3OC[C@@H](O)[C@H](O)[C@H]3O)C(C)(C)[C@@H]5CC[C@H]4[C@]12C [Decoy347],Inactive (Decoy)
25,CCOC(=O)c1ccc(NC(=O)C/C(C)=N/NC(=O)C(=O)Nc2cccc(Cl)c2C)cc1 [Decoy358],Inactive (Decoy)
26,Cc1ccc(S(=O)(=O)CNC(=O)[C@@H](c2ccc3c(c2)OCO3)N(C)C(=O)c2cccc(O)c2O)cc1 [Decoy614],Inactive (Decoy)
27,COCCCNC(=O)C(=O)N/N=C/c1cc(I)c(OCC(=O)Nc2cccc(C(F)(F)F)c2)c(OC)c1 [Decoy573],Inactive (Decoy)
28,CC(=O)N[C@H]1[C@H]([C@H](O)[C@H](O)CO)O[C@](O[C@H]2[C@@H](O)[C@@H](CO)O[C@@H](O[C@H]3[C@H](O)[C@@H](O)[C@H](NC(C)=O)O[C@@H]3CO)[C@@H]2O)(C(=O)O)C[C@@H]1O [Decoy607],Inactive (Decoy)
29,CCCCCCCCCCC/C=C/C(=O)N[C@H]1[C@@H](O[C@H]2O[C@@H](CO)[C@@H](O)[C@@H](O)[C@H]2NC(C)=O)O[C@@H](C[C@H](O)[C@H]2O[C@@H](n3ccc(=O)[nH]c3=O)[C@@H](O)[C@H]2O)[C@@H](O)[C@H]1O [Decoy557],Inactive (Decoy)
